The results in this text go back to ChEMBL document CHEMBL5291721, “A preclinical secondary pharmacology resource illuminates target-adverse drug reaction associations of marketed drugs” (Nat Commun, 2023).

In experiment [1] the target is T1, 5-hydroxytryptamine receptor 1A (Homo sapiens, UniProt P08908).
T1 sequence (P08908 whole entry): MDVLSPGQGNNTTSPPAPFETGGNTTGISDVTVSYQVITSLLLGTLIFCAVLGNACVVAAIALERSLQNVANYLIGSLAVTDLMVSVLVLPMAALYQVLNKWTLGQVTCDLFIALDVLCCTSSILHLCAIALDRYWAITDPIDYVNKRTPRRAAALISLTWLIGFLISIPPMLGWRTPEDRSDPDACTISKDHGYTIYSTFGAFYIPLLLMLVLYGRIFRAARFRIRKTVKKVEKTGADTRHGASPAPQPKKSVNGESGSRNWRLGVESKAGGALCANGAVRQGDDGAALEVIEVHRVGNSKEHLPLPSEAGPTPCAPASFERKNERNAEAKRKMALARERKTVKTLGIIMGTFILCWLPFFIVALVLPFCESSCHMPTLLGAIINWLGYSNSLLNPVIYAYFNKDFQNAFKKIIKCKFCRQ
In kind it is functional, cell-based.

The next experiment deals with T2, B2 bradykinin receptor (Homo sapiens, UniProt P30411).
T2 sequence (P30411 whole entry): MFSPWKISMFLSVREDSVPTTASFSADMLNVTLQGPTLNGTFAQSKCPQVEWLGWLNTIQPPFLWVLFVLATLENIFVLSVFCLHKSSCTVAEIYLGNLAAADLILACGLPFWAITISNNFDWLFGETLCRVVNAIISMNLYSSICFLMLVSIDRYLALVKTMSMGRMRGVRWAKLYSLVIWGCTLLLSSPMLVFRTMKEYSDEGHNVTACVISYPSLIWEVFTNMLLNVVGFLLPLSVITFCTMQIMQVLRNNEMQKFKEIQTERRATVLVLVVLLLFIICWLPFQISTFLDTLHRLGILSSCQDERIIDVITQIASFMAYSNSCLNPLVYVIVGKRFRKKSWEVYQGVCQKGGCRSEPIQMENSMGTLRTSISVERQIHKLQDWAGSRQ

Experiment [2] concerns the target T3, Alpha-1A adrenergic receptor (Homo sapiens, UniProt P35348).
T3 sequence (P35348 whole entry): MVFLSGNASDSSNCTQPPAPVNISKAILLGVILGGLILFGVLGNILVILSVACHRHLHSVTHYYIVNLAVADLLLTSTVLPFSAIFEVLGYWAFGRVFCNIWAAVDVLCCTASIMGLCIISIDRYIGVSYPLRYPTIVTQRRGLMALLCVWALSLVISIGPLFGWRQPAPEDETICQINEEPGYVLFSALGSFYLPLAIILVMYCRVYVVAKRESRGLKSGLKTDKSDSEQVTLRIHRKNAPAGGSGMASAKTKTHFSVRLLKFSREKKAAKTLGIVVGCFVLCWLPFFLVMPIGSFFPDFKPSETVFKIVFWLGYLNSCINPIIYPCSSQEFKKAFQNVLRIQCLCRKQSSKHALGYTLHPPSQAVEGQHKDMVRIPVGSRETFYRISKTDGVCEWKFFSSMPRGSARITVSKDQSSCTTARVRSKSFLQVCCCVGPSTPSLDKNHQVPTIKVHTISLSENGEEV
Format: functional, cell-based.

The target of experiment [3] is Sodium-dependent dopamine transporter (Homo sapiens, UniProt Q01959).
Experiment [4] deals with T4, Muscarinic acetylcholine receptor M2 (Homo sapiens, UniProt P08172).
T4 sequence (P08172 whole entry): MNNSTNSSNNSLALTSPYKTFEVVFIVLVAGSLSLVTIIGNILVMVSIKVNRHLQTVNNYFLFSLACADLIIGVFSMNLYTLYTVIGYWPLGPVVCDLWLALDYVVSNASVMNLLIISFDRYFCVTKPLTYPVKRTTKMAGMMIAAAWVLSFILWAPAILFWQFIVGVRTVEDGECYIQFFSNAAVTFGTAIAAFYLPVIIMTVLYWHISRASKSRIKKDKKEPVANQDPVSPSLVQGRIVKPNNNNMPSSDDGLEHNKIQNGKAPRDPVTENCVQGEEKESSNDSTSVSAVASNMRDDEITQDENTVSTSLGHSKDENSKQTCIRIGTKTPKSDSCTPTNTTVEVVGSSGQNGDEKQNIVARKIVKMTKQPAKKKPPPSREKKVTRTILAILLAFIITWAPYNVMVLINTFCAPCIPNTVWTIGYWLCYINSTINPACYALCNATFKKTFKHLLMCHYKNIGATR
Format: functional, cell-based.
Also: assay procedure not described here.

Sodium-dependent dopamine transporter, sequence (Q01959 whole entry): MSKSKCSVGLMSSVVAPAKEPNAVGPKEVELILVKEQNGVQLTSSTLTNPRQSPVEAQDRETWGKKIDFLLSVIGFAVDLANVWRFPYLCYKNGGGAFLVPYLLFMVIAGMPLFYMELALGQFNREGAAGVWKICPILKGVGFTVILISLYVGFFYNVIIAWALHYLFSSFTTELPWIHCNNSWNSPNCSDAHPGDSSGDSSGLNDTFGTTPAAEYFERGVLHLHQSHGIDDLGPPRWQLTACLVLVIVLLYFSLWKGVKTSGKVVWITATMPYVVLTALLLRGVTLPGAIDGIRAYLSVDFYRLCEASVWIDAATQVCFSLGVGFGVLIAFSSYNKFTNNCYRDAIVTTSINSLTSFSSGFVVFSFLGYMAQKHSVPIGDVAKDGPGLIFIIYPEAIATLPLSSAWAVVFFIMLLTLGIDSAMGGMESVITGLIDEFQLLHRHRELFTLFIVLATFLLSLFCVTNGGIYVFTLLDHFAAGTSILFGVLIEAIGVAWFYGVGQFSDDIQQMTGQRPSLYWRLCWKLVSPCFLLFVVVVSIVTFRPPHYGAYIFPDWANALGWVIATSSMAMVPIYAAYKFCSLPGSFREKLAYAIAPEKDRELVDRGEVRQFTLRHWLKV

Regarding `NCCCC(O)(P(=O)(O)O)P(=O)(O)O` [ALENDRONIC ACID], the concentration at half-maximal activity (AC50) in experiment [1] is above 10 µM; on B2 bradykinin receptor, above 30 µM.

As for `CCC(=O)OCC(=O)[C@@]1(OC(=O)CC)[C@@H](C)C[C@H]2[C@@H]3CCC4=CC(=O)C=C[C@]4(C)[C@@]3(F)[C@@H](O)C[C@@]21C` [BETAMETHASONE DIPROPIONATE], the half-maximal activity concentration (AC50) (in experiment [1]; in experiment [2]; at B2 bradykinin receptor; in experiment [3]; in experiment [4]) was above 30 µM throughout.

Take `CCCC(C)(COC(N)=O)COC(=O)NC(C)C` (configuration not stated) [CARISOPRODOL]: the concentration at half-maximal activity (AC50) in experiment [1] was above 10 µM; in experiment [2] it was above 30 µM; on B2 bradykinin receptor, above 30 µM; in experiment [3], above 10 µM; in experiment [4], above 10 µM.

In the case of `N[C@H](Cc1cc(I)c(Oc2cc(I)c(O)c(I)c2)c(I)c1)C(=O)O` [DEXTROTHYROXINE], the half-maximal activity concentration (AC50) in experiment [1] is above 10 µM; in experiment [2] it was above 30 µM; on B2 bradykinin receptor, above 30 µM; in experiment [3], above 30 µM; in experiment [4] it was above 10 µM.

With `Clc1ccc2c(c1)C(c1ccccc1)=NCc1nncn1-2` [ESTAZOLAM], the concentration at half-maximal activity (AC50) is above 10 µM in experiment [1]; above 30 µM in experiment [2]; above 30 µM at B2 bradykinin receptor; above 30 µM in experiment [3]; above 10 µM in experiment [4].

For `CC(=O)OCC(CCn1cnc2cnc(N)nc21)COC(C)=O` [FAMCICLOVIR], the AC50 in experiment [1] was above 10 µM; in experiment [2] it was above 30 µM; on B2 bradykinin receptor, above 30 µM; in experiment [3] it was above 10 µM; in experiment [4], above 10 µM.

On to `O=C(O)c1ccccc1Nc1cccc(C(F)(F)F)c1` [FLUFENAMIC ACID], for which the AC50 in experiment [1] was above 30 µM; in experiment [2] it was above 30 µM; on B2 bradykinin receptor, above 30 µM; in experiment [3], above 30 µM; in experiment [4], above 10 µM.

Consider `C#C[C@]1(O)CC[C@H]2[C@@H]3CCC4=CC(=O)CCC4=C3C=C[C@@]21CC` [GESTRINONE], for which the AC50 was above 30 µM in experiment [1]; above 30 µM in experiment [2]; above 30 µM on B2 bradykinin receptor; 25 µM in experiment [3]; above 30 µM in experiment [4].

In the case of `COC1=C(OC)C(=O)C(CCCCCCCCCCO)=C(C)C1=O` [IDEBENONE], the AC50 in experiment [1] was above 10 µM; in experiment [2] it was above 30 µM; on B2 bradykinin receptor, above 30 µM; in experiment [3] it was above 10 µM; in experiment [4] it was above 10 µM.

Take `CC#CCn1c(N2CCC[C@@H](N)C2)nc2c1c(=O)n(Cc1nc(C)c3ccccc3n1)c(=O)n2C` [LINAGLIPTIN]: the AC50 (at B2 bradykinin receptor; in experiment [3]) was above 30 µM throughout.

As for `O=C1CN=C(c2ccccc2)c2cc(Cl)ccc2N1` [NORDAZEPAM], the AC50 is above 10 µM in experiment [1], above 30 µM on B2 bradykinin receptor, above 10 µM in experiment [3] and above 10 µM in experiment [4].

Regarding `CC(CCc1ccccc1)NC(C)C(O)c1ccc(O)cc1` (configuration not stated) [NYLIDRIN], the AC50 in experiment [1] was above 10 µM; on B2 bradykinin receptor, above 30 µM; in experiment [3] it was 1.44 µM; in experiment [4], above 10 µM.

In the case of `O=C1Nc2ccc(Cl)cc2C(c2ccccc2)=NC1O` (configuration not stated) [OXAZEPAM], the half-maximal activity concentration (AC50) was above 10 µM in experiment [1]; above 30 µM in experiment [2]; above 30 µM on B2 bradykinin receptor; above 10 µM in experiment [3]; above 10 µM in experiment [4].

As for `C[n+]1ccccc1/C=N/O` [PRALIDOXIME], the concentration at half-maximal activity (AC50) in experiment [2] is above 30 µM.

`Cc1cc2nc3c(=O)[nH]c(=O)nc-3n(C[C@H](O)[C@H](O)[C@H](O)COP(=O)(O)O)c2cc1C` [RIBOFLAVIN 5'-PHOSPHATE]: the AC50 in experiment [2] is 5.1 µM; on B2 bradykinin receptor, above 30 µM; in experiment [3], above 30 µM.

For the compound `COc1ccc(C(CN(C)C)C2(O)CCCCC2)cc1` (configuration not stated) [VENLAFAXINE], the AC50 in experiment [1] is above 30 µM; in experiment [2] it was above 30 µM; at B2 bradykinin receptor it was above 30 µM; in experiment [4], above 10 µM.

As for COLISTIN, the concentration at half-maximal activity (AC50) in experiment [1] and in experiment [2] was above 30 µM throughout.

As a reminder, the AC50 is the concentration giving half of the maximal activity seen. A lower AC50 goes with greater potency.
